Here are results for 17 molecules from PMC4638363, “Linear Interaction Energy Based Prediction of Cytochrome P450 1A2 Binding Affinities with Reliability Estimation” (PLoS ONE, 2015).

For series [1], the target named is T1, human CYP 1A2 (Homo sapiens, UniProt P05177).
T1 sequence (P05177 1-516): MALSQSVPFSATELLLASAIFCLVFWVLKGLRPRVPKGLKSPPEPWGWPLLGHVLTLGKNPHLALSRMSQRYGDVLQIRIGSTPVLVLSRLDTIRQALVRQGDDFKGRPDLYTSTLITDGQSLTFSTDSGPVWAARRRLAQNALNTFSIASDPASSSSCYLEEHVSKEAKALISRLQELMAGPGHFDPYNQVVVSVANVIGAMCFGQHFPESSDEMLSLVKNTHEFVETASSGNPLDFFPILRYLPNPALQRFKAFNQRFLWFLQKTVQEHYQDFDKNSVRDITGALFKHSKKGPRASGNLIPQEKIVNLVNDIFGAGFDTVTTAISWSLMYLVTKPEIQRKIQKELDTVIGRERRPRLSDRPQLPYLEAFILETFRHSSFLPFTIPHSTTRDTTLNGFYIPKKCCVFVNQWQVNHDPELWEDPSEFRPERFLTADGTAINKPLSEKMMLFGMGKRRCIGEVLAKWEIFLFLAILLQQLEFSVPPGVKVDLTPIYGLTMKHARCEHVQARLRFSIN
As to conditions: for ΔG bind (inhouse): human, 10 min, pH 7.4.

The test system of series [2] is CYP 1A2. Nature of the series: Source 1: Bayer HealthCare screen, phenacetin as substrate probe on pooled human liver microsomes. As to conditions: for ΔG bind (lit): from literature IC50, Source 1 (Ref. 57); for ΔGbind^Obs: from literature IC50, Source 1. (Microsomes from liver hold many membrane-bound enzymes, among them those of drug oxidation.)
Series [3] concerns the target T1, human CYP 1A2.
Series [4] relates to CYP 1A2. To be noted: cited from earlier work.
The subject of series [5] is CYP 1A2. As to conditions: cited from earlier work. This is another data set of the same source.
Series [6] concerns the target T1, human CYP 1A2. Description: in-house CYP 1A2 inhibition assay with 7-methoxyresorufin as substrate (resorufin fluorescence). To be noted: for ΔΔG bind: difference in ΔG bind between literature and in-house determined values; for ΔG bind (inhouse): from in-house IC50 via Cheng-Prusoff and RTln(Ki).
Series [7] relates to CYP 1A2. To be noted: human.
Series [8] concerns CYP 1A2. To be noted: for ΔG bind (lit): from literature IC50, Source 2 (Ref. 58); for ΔGbind^Obs: training set, from literature IC50, Source 2.
The test system of series [9] is CYP 1A2. As to conditions: cited from earlier work. The source holds these as a separate data set.
Series [10] has as its system recombinant CYP 1A2. As to conditions: cited from earlier work.
The subject of series [11] is recombinant CYP 1A2. As to conditions: human.
Series [12] concerns recombinant CYP 1A2.
Where [13] appears, read: read-out: IC 50 (lit), Source 1, pooled human liver microsomes, phenacetin probe.
[14] abbreviates: Table A, Source 1, ref Bayer HealthCare databases for CYP inhibition (eTOX).
[15] abbreviates: read-out: IC 50 (lit), Source 2, recombinant CYPs, phenacetin O-deethylation.
The mark [16] stands for this setting: Table A, Source 2, ref Cohen et al., Drug Metab. Dispos. 2003.

Read-outs that look alike come from different tables or passages of the source.

Molecule `COc1ccc2nc3ccc(=O)cc-3oc2c1` [7-Methoxyresorufin] showed a K m in series [1] of 2.5 µM.

Regarding `Cc1cccc(Nc2ccccc2C(=O)O)c1C` [Compound 1, Mefenamic Acid], the “ΔG bind (lit)” value in series [2] is -7.1 kcal/mol. Further, in series [2] (training set), the “ΔGbind^Obs” value is -7.1 kcal/mol. In series [3] (training set), the “Residual (ΔGbind^Obs—ΔGbind^Calc)” value was 1.03 kcal/mol. Besides, the Reported inhibition mechanism entry in series [4] (literature) is recorded as “Competitive^60”. For the same molecule, in [5] (setting [13]), the IC50 was 14 µM. In addition, in series [6], the IC50 was found to be 19 ± 7 µM, the ΔΔG bind is -0.19 kcal/mol and the “ΔG bind (inhouse)” value is -6.91 ± 0.239 kcal/mol.

Take `Nc1c2c(nc3ccccc13)CCCC2` [Compound 2, Tacrine]: the “Residual (ΔGbind^Obs—ΔGbind^Calc)” value in [3] is -0.669 kcal/mol. Besides, in [1], the ΔΔG bind worked out at 0.502 kcal/mol and the “ΔG bind (inhouse)” value was -8.17 ± 0.287 kcal/mol. Besides, in [4], the Reported inhibition mechanism entry is reported as “Substrate^61”. In series [7], the “ΔG bind (lit)” value was -7.67 kcal/mol and the “ΔGbind^Obs” value is -7.7 kcal/mol. Moreover, the IC50 in [5] (microsomes) was 5.2 µM. The molecule further gave an IC50 in [6] of 2.3 ± 1 µM.

On to `COc1ccccc1OCCNCC(O)COc1cccc2[nH]c3ccccc3c12` (stereo not drawn) [Compound 3, Carvedilol], for which the “ΔG bind (lit)” value in series [2] is -7.6 kcal/mol. For the same molecule, in series [4] (literature), the Reported inhibition mechanism entry is given as “Substrate^62”. The IC50 in series [5] (setting [14]) was 5.1 µM. In addition, the IC50 in series [5] (setting [13]) was 5.91 µM. In series [6], the IC50 amounted to 5 ± 0.2 µM, the ΔΔG bind was determined as 0.096 kcal/mol and the “ΔG bind (inhouse)” value is -7.7 ± 0.024 kcal/mol.

`Cc1c2ccncc2c(C)c2c1[nH]c1ccccc12` [Compound 5, Ellipticine]: the “ΔG bind (lit)” value in series [8] is -9.99 ± 0.048 kcal/mol. For the same molecule, the IC50 in series [9] (setting [15]) was 0.11 ± 0.01 µM. In [6], the IC50 stood at 0.007 ± 0.002 µM, the ΔΔG bind came out at 1.65 kcal/mol and the “ΔG bind (inhouse)” value was -11.6 ± 0.17 kcal/mol.

As to `CCOc1ccc(NC(C)=O)cc1` [Compound 6, Phenacetin], the “Residual (ΔGbind^Obs—ΔGbind^Calc)” value in series [3] was […]. In series [8], the “ΔG bind (lit)” value is […] and the “ΔGbind^Obs” value was […]. In series [4] (literature), the Reported inhibition mechanism result was “Substrate^64”. For the same molecule, the IC50 in series [9] (setting [15]) is […].

Take `O=c1cc(-c2ccccc2)oc2c1ccc1ccccc12` [Compound 7, alpha-Naphthoflavone]: in [8], the “ΔG bind (lit)” value is […] and the “ΔGbind^Obs” value is […]. In addition, the Reported inhibition mechanism entry in series [4] (literature) was “Competitive/uncompetitive^65”. Besides, in [9] (setting [15]), the IC50 is […].

Consider `Clc1ccccc1CN1CCc2sccc2C1` [Compound 8, Ticlopidine], for which the “ΔG bind (lit)” value in series [8] is […]. The Reported inhibition mechanism result in series [4] (literature) was “Competitive^66”. In series [9] (setting [15]), the IC50 is […].

As for `Oc1ccc2ccccc2c1` [Compound 10, 2-naphthol], the IC50 in series [10] (recombinant enzyme) was 17 ± 1.5 µM. In [11], the “ΔG bind (lit)” value was -6.96 ± 0.048 kcal/mol and the “ΔGbind^Obs” value was -6.96 kcal/mol. Moreover, in series [3], the “Residual (ΔGbind^Obs–ΔG bind ^Calc), error in prediction” value was -1.55 kcal/mol. In addition, in series [1], the ΔΔG bind came out at 0.813 kcal/mol and the “ΔG bind (inhouse)” value was -7.79 ± 0.17 kcal/mol. The IC50 in [6] came to 4.4 ± 1.2 µM.

Regarding `Cc1ccc(CCN)cc1` [Compound 12, p-tolylethylamine], in [10] (read-out: IC 50 (lit), Source 3, recombinant CYP 1A2, 7-ethoxyresorufin O-dealkylation), the IC50 is 14 ± 2.5 µM. Moreover, the “Residual (ΔGbind^Obs–ΔG bind ^Calc), error in prediction” value in series [3] (test set) was -1.53 kcal/mol. Also, the “ΔG bind (lit)” value in series [12] (from literature IC50, Source 3 (Ref. 25)) is -7.07 ± 0.12 kcal/mol. The “ΔGbind^Obs” value in [12] (test set, from literature IC50, Source 3) is -7.07 kcal/mol. Further, in series [6], the ΔΔG bind was -1.27 kcal/mol and the “ΔG bind (inhouse)” value is -5.81 ± 0.17 kcal/mol. Also, the IC50 in series [6] (read-out: IC 50 (inhouse), 7-methoxyresorufin at Km 2.5 μM, triplicate) came out at 120 ± 33 µM.

`O=c1c(O)c(-c2ccc(O)c(O)c2)oc2cc(O)cc(O)c12` [Compound 14, Quercetin]: the “ΔGbind^Obs” value in [2] (test set) was […]. The “Residual (ΔGbind^Obs–ΔG bind ^Calc), error in prediction” value in series [3] (test set) is […]. In addition, the Reported inhibition mechanism entry in series [4] (literature) is listed as “Competitive^67”. Also, the IC50 in [5] (setting [14]) was […].

`O=C(O)c1cccnc1Nc1cccc(C(F)(F)F)c1` [Compound 16, Niflumic Acid]: the “ΔGbind^Obs” value in [2] (training set) was -7.22 kcal/mol. For the same molecule, the “Residual (ΔGbind^Obs—ΔGbind^Calc)” value in series [3] (training set) was 0.693 kcal/mol. Besides, in series [5] (setting [14]), the IC50 is 11.6 µM.

As to `O=C1C[C@@H](c2ccc(O)cc2)Oc2cc(O)cc(O)c21` [Compound 17, Naringenin], in series [2] (test set), the “ΔGbind^Obs” value is -7.17 kcal/mol. The Reported inhibition mechanism result in series [4] (literature) is “Substrate^68”. Besides, the IC50 in [5] (setting [14]) is 12.3 µM.

`C[C@]12CC[C@@H]3c4cc(F)c(O)cc4CC[C@H]3[C@@H]1CC[C@@H]2O` [Compound 20, 2-Fluoroestradiol]: the “ΔGbind^Obs” value in series [2] (test set) is -6.72 kcal/mol. Also, the “Residual (ΔGbind^Obs–ΔG bind ^Calc), error in prediction” value in series [3] (test set) was 1.67 kcal/mol. Besides, the IC50 in [5] (setting [14]) is 26.8 µM.

`Cc1cccc(C)c1OCC(C)N` (stereo not drawn) [Compound 23, Mexiletine]: the “Residual (ΔGbind^Obs—ΔGbind^Calc)” value in series [3] (training set) was -1.86 kcal/mol. The “ΔGbind^Obs” value in series [8] was -8.32 kcal/mol. For the same molecule, the Reported inhibition mechanism result in series [4] (literature) is given as “Competitive^70”. The IC50 in series [9] (setting [16]) is 1.84 µM.

For the molecule `Cc1nc2c([nH]1)c(=O)n(C)c(=O)n2Cc1ccco1` [Compound 24, Furafylline], in series [4] (literature), the Reported inhibition mechanism entry was “Mechanism-based^71”. Moreover, in series [9] (setting [16]), the IC50 is […].

With `CC(C)NCC(O)COc1cccc2ccccc12` (stereo not drawn) [Compound 25, Propranolol], the “Residual (ΔGbind^Obs—ΔGbind^Calc)” value in series [3] (training set) was -0.263 kcal/mol. Moreover, in [8], the “ΔGbind^Obs” value was -7.86 kcal/mol. Further, in [4] (literature), the Reported inhibition mechanism entry is on record as “Substrate^72”. Further, the IC50 in [9] (setting [16]) is 3.84 µM.
